Measured values reported in PubChem BioAssay AID624491 (Broad Institute, 2012).

System: D54 ERlucT glycosylation luciferase reporter, luminescence, 24 h
Test: blockers of NLG process in reporter cells – D54 ERlucT cells, luminescence, cherry-picks, dose response (AID 624491);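 note: signal gain reflects blocked N-linked glycosylation of a luciferase reporter; actives raise luciferase signal so AC26 marks activators of the reporter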

SMILES | AC26 [nM]
COc1ccc(/C=N/NC(=O)c2c(C)nc3ccc(Br)cn23)cc1OC | 2520
Cc1ccc(S/C=C\C(=O)c2ccccc2)cc1 | 3170
Cn1cc(C(=O)N/N=C/C(Br)=C/c2ccccc2)ccc1=O | 2850
O=C(NCc1cccs1)C1Cc2c(-c3ccc(Cl)cc3)ccnc2O1 (centres undefined) | 1670
Cn1cccc1/C=C1\C(=O)NC(=O)N(Cc2ccccc2)C1=O | 267
COc1cc(NC(=O)c2ccccc2F)ccc1NC(=O)c1cc2ccccc2o1 | 2390
Cc1cc(C)cc(N2C(=O)NC(=O)/C(=C\C=C\c3ccco3)C2=O)c1 | 1130
COCCNc1nc(NCc2ccccc2)nc2ccsc12 | 136
Cn1c(=O)[nH]c(=O)c2c1nc(N/N=C/c1cccnc1)n2Cc1ccc(Cl)cc1 | 1630
CCOc1ccc2[nH]c(C(=O)N/N=C/c3cc(OC)c(OC)c(OC)c3)cc2c1 | 1320
COc1ccccc1-c1csc(C(NC(C)=O)c2ccc(F)c(F)c2)n1 (centres undefined) | 341
c1ccc(CN2CCC(Nc3nc(-c4cccnc4)nc4ccccc34)CC2)cc1 | 6130
COc1ccc(-n2c(C)cc(C(=O)CCl)c2C)cc1 | 3980
C/C(=N/NC(=O)c1cccs1)c1ccc(NC(=O)COc2ccc(Cl)cc2Cl)cc1 | 6270
COc1cc(C2c3[nH]c4ccccc4c3CC3COC(=O)N32)cc(OC)c1O (centres undefined) | 780
COc1ccc(C2=NOC(COc3ccc4c(C)cc(=O)oc4c3)C2)c(OC)c1 (centres undefined) | 1070
Cc1cc(C)cc(NC2=NC3(CCCCC3)N=C(N)N2)c1 | 545
O=C(NCCCn1ccnc1)c1cc(-c2ccccc2)on1 | 3170
COc1ccc(C(=O)c2cc([N+](=O)[O-])ccc2N2CCN(C)CC2)cc1 | 2330
CC(=O)Nc1cccc(-c2ccnc3c2CC(C(=O)NCCc2ccccc2)O3)c1 (centres undefined) | 1910
CC(=O)Nc1ccc(C(=O)N/N=C/c2ccccc2OCc2ccccc2)cc1 | 1490
O=C(Nc1ccccc1O)c1ccc(NC(=O)C2CC2)cc1 | 4330
COc1ccc2[nH]c3c(N4CCC(O)(c5cccc(C(F)(F)F)c5)CC4)ncnc3c2c1 | 2740
CN1C(=O)C(=Cc2sc(=O)n(-c3ccccc3)c2N(C)C)C(=O)N(C)C1=O | 5320
COCCCNC(=O)Cc1c(C)c2c(cc(C)c3c(C(C)(C)C)coc32)oc1=O | 1510
CCCCCCn1c(=O)n2n(c1=O)[C@@H]1CN(S(=O)(=O)c3ccc(C)cc3)C[C@]1(O)[C@@H](OC(=O)NCc1ccccc1)C2 | 763
COc1cc(C(=O)Nc2cc(C(F)(F)F)ccc2N2CCOCC2)ccc1OCC(=O)N1CCOCC1 | 1820

SMILES | AC26 [nM]
Cc1onc(C(=O)Nc2cccc(C(F)(F)F)c2)c1[N+](=O)[O-] | 2720
COc1cc(/C=C/c2onc(C)c2[N+](=O)[O-])cc(OC)c1OC | 864
O=C1CCNc2cc3ccccc3cc21 | 32.5
COc1ccc(OC)c(Nc2cc3ccccc3c(=O)[nH]2)c1 | 207
CCOC(=O)c1[nH]c(C)c(C(=O)OCC(=O)NC(C)c2ccc(F)cc2)c1C (centres undefined) | 3150
C[C@@]12C(=O)Nc3cc(Cl)ccc3C(=O)N1[C@H]1c3ccccc3OC[C@@H]1[C@@H]2c1ccccc1 | 397
CC(CC(=O)Nc1ccc2c(c1)c(=O)n(C)n2-c1cccs1)c1ccccc1 (centres undefined) | 6270
CNc1ccc(Br)cc(C(=O)/C=C/c2cccc(OC)c2OC)c1=O | 2220
Cc1ccc(-c2nc(NCCN(C)C)c3ccccc3n2)cc1 | 4940
COc1ccc(NC(=O)CSc2c3c(nc4ccccc24)CCCC3)c(OC)c1 | 9240
COc1ccc(-c2nc3c(s2)CCc2onc(-c4ccc(OC)cc4)c2-3)cc1 | 14400
COc1ccc(/C=N\NC(=O)c2sccc2C)cc1Cn1nc(C)cc1C | 507
O=C1[C@@H]2Cc3c([nH]c4ccccc34)C(c3ccc([N+](=O)[O-])cc3)N2C(=O)CN1C1CC1 (some centres undefined) | 11500
CCOc1cc(-c2cc(-c3ccccc3)nc(N)c2C#N)ccc1O | 2480
COC(=O)c1ccccc1-c1ccc(C(c2c(C)[nH][nH]c2=O)c2c(C)[nH][nH]c2=O)o1 | 5960
COc1ccc(/C=N/NC(=O)c2nc(-c3ccccc3)cc(-c3ccccc3)n2)cc1O | 685
COc1ccc(C(=O)NCCN(C)C)c2nc3ccccc3cc12 | 128
CCOC(=O)C1=C(Cc2ccc(F)cc2)C(=O)c2ccccc2C1=O | 6390
CC(C)(C)c1ccc(C(=O)O/N=C(\N)Cc2cccs2)cc1 | 11800
Cn1c(SCC(=O)Nc2cccc(F)c2)nc2c([nH]c3ccccc32)c1=O | 5420
c1ccc(-c2n[nH]c(-c3ccccc3)c2-c2nc3ccccc3[nH]2)cc1 | 4360
Cc1cnc(C(=O)Nc2ccc(OC(F)(F)F)cc2)cn1 | 9150
CCN1Cc2c(/C=C/c3ccccc3)nc3ccc(OC)cc3c2N(c2cccc(Cl)c2)C1 | 14300
COc1ccc2c(-c3cc4ccc(OCc5ccc(F)cc5)cc4oc3=O)cc(=O)oc2c1 | 4410
O=C(c1ccccc1-c1ccccc1)N1CCN(c2ccccn2)CC1 | 2340
CCCNC(=O)c1cc(-c2ccco2)on1 | 3780
c1ccc2sc(Sc3ncnc4sccc34)nc2c1 | 1480
